Laboratory results from patent US20190075791A1, “ANTIMICROBIAL SURFACE COATING MATERIAL” (YEDITEPE UNIVERSITESI, priority 2015, published 2019).

Key:
Assay in all cases: Modified disk diffusion method (chemicals)
Assay type in all cases: cell-based
Aspergillus spp. = details: disc diffusion on Potato Dextrose Agar, 72 hours at 25±1 °C, PC = nystatin 30 μg/disc
Method: (§1) Modified disk diffusion method: Standard NCCLS disc diffusion method was used upon being modified in order to determine the antimicrobial activity of CG, T and ZP on each microorganism that is being tested. The 100 μl solution including 10^8 cfu/ml bacteria, 10^6 cfu/ml yeast and 10^4 spor/ml fungi was prepared with fresh cultures and inoculated with spreading method on Nutrient Agar (NA), Sabouraud Dextrose Agar (SDA) and Potato Dextrose Agar (PDA), respectively. 20 μl of sterile water was dropped on the empty discs, and was immersed into powder triclosan. 20 μl of chlorhexidine gluconate and zinc pyrithione were drawn and impregnated to the empty discs and placed on the inoculated petri dishes. Empty discs with 20 μl drop of sterile water were used as negative control. Ofloxacin (10 μg/disc) and nystatin (30 μg/disc) were used as positive control for bacteria and fungi, respectively. The petri dishes, which were inoculated and on which modified disc diffusion method was applied, were incubated for 24 hours for bacteria and 48 hours for yeasts at 36±1 ° C., and for 72 hours for fungi at 25±1 ° C. […] All tests were repeated at least twice.

Botrytis cinerea = details: disc diffusion on Potato Dextrose Agar, 72 hours at 25±1 °C, PC = nystatin 30 μg/disc
Method: as §1

Candida albicans = details: disc diffusion on Sabouraud Dextrose Agar, 48 hours at 36±1 °C, PC = nystatin 30 μg/disc
Method: as §1

Candida glabrata = details: disc diffusion on Sabouraud Dextrose Agar, 48 hours at 36±1 °C, PC = nystatin 30 μg/disc
Method: as §1

Escherichia coli = details: disc diffusion on Nutrient Agar, 24 hours at 36±1 °C, PC = ofloxacin 10 μg/disc
Method: as §1

Fusarium oxysporum = details: disc diffusion on Potato Dextrose Agar, 72 hours at 25±1 °C, PC = nystatin 30 μg/disc
Method: as §1

[1] = system: Methicillin-resistant Staphylococcus aureus (MRSA); details: disc diffusion on Nutrient Agar, 24 hours at 36±1 °C, PC = ofloxacin 10 μg/disc
Method: as §1

Penicillium spp. = details: disc diffusion on Potato Dextrose Agar, 72 hours at 25±1 °C, PC = nystatin 30 μg/disc
Method: as §1

Pseudomonas aeruginosa = details: disc diffusion on Nutrient Agar, 24 hours at 36±1 °C, PC = ofloxacin 10 μg/disc
Method: as §1

Staphylococcus aureus = details: disc diffusion on Nutrient Agar, 24 hours at 36±1 °C, PC = ofloxacin 10 μg/disc
Method: as §1

[2] = system: Vancomycin-resistant Enterococcus (VRE); details: disc diffusion on Nutrient Agar, 24 hours at 36±1 °C, PC = ofloxacin 10 μg/disc
Method: as §1

N=C(NCCCCCCNC(=N)NC(=N)Nc1ccc(Cl)cc1)NC(=N)Nc1ccc(Cl)cc1.O=C(O)[C@H](O)[C@@H](O)[C@H](O)[C@H](O)CO.O=C(O)[C@H](O)[C@@H](O)[C@H](O)[C@H](O)CO [CG, Chlorhexidine gluconate]
Antimicrobial activity (inhibition zone) (Aspergillus spp.): + | Antimicrobial activity (inhibition zone) (Botrytis cinerea): + | Antimicrobial activity (inhibition zone) (Candida albicans): + | Antimicrobial activity (inhibition zone) (Candida glabrata): + | Antimicrobial activity (inhibition zone) (Escherichia coli): + | Antimicrobial activity (inhibition zone) (Fusarium oxysporum): + | Antimicrobial activity (inhibition zone) [1]: + | Antimicrobial activity (inhibition zone) (Penicillium spp.): + | Antimicrobial activity (inhibition zone) (Pseudomonas aeruginosa): + | Antimicrobial activity (inhibition zone) (Staphylococcus aureus): + | Antimicrobial activity (inhibition zone) [2]: +

Oc1cc(Cl)ccc1Oc1ccc(Cl)cc1Cl [T, Triclosan]
Antimicrobial activity (inhibition zone) (Aspergillus spp.): − | Antimicrobial activity (inhibition zone) (Botrytis cinerea): − | Antimicrobial activity (inhibition zone) (Candida albicans): − | Antimicrobial activity (inhibition zone) (Candida glabrata): − | Antimicrobial activity (inhibition zone) (Escherichia coli): + | Antimicrobial activity (inhibition zone) (Fusarium oxysporum): − | Antimicrobial activity (inhibition zone) [1]: + | Antimicrobial activity (inhibition zone) (Penicillium spp.): − | Antimicrobial activity (inhibition zone) (Pseudomonas aeruginosa): + | Antimicrobial activity (inhibition zone) (Staphylococcus aureus): + | Antimicrobial activity (inhibition zone) [2]: +

Zinc Pyrithione [ZP]
Antimicrobial activity (inhibition zone) (Aspergillus spp.): + | Antimicrobial activity (inhibition zone) (Botrytis cinerea): + | Antimicrobial activity (inhibition zone) (Candida albicans): + | Antimicrobial activity (inhibition zone) (Candida glabrata): + | Antimicrobial activity (inhibition zone) (Escherichia coli): + | Antimicrobial activity (inhibition zone) (Fusarium oxysporum): + | Antimicrobial activity (inhibition zone) [1]: + | Antimicrobial activity (inhibition zone) (Penicillium spp.): + | Antimicrobial activity (inhibition zone) (Pseudomonas aeruginosa): + | Antimicrobial activity (inhibition zone) (Staphylococcus aureus): + | Antimicrobial activity (inhibition zone) [2]: +
